Like-named read-outs stand apart in the source and are kept apart here. Ends that are not written are not given here.
What was measured:
[1] = In vivo brain distribution study after i.n. and i.p. administration to mice; set-up: species or system Male ddY mice; details: mouse; for Tmax: plasma
Method: For i.n. administration, ANA-TA9 was dissolved in PBS at a concentration of 100 mg/mL. Since the profile of the concentration in the plasma after i.p. administration was similar with that after i.n. administration, i.p. administration served as the control for i.n. administration. The nasal solution was diluted to 10 mg/mL for i.p. administration. Male ddY mice weighing 25 g were purchased from Japan SLC. The animals were maintained under conventional housing conditions. After anesthetization by the inhalation of isoflurane (2%), ANA-TA9 solution (5 μL each) was administered to both nostrils of the mice. The ANA-TA9 solution (100 μL) was administered peritoneally. After making an incision in the abdomen at 5, 15, 30, 45, 60, and 90 min after administration, blood was collected from the postcaval vein. Soon after the blood sampling, the heparinized ice-cold saline was flushed by perfusion from the left ventricle to remove the blood from the cerebral blood vessel. The whole brain was removed; washed with ice-cold saline; and divided into three sections: olfactory bulb, frontal brain, and occipital brain. The tissue concentrations of ANA-TA9 were measured with LC/MS. The plasma and brain concentrations of ANA-TA9 were determined by LC/MS, LC-20A, and LCMS-2020 (SHIMADZU, Kyoto, Japan). Briefly, 100 μL of the plasma were mixed with 1000 μL of methanol. […] To the dissected brain tissue, 100 μL of ice-cold purified water were added, and the mixture was homogenized under ice-cold conditions. To the homogenate, 4000 μL of ice-cold methanol were added. […] The residues were reconstituted with 100 μL of the mobile phase of the chromatography. In the preliminary study, it was confirmed that the effect of rapid degradation of ANA-TA9 on the assay could be excluded by the treatment on the blood and brain tissues mentioned above. Chromatographic separation was performed using a C18 analytical column (TSKgel ODS 100V, 3 μm, 2.0 mm × 100 mm; TOSOH, Tokyo, Japan). The mobile phase was acetonitrile/0.1% acetic acid (10/90), and the flow rate was 0.2 mL/min. ANA-TA9 eluting from the column was detected with mass spectrometry under the positive mode. Nitrogen gas was used for nebulization at a flow rate of 1.5 L/min. Other conditions (temperature and voltage) were set as the default. The calibration curves of ANA-TA9 in the plasma and the brain were determined. […] For the calculation of the direct transport percentage (DTP), the equation by Fukuda M. et al. was slightly modified. The modified equation is as follows:(1) %DTP=(AUCbrain)IN−(AUCbrain)X/(AUCbrain)IN×100 (2) (AUCbrain)X=(AUCbrain)IP/(AUCplasma)IP×(AUCplasma)IN in the above equation, AUCbrain,i.p. and AUCplasma,i.p. are used in place of AUCbrain,i.v. and AUCplasma,i.v. in the original equation by Fukuda M. et al.

[2] = system: Aβ42; details: also three Aβ fragment peptides, particularly Aβ11–29; cited from earlier work
Description: Recently, we reported the proteolytic activity of the shorter synthetic peptides JAL-TA9 (YKGSGFRMI) and ANA-TA9 (SKGQAYRMI), derived from the Box A region of the Tob1 and ANA/BTG3 proteins. These peptides cleave Aβ42 and three Aβ fragment peptides, particularly Aβ11–29 originating from the central region, which is considered the core region of Aβ42 aggregation/oligomerization. We gave these peptides the general name Catalytide. Catalytides such as JAL-TA9 and ANA-TA9 are attractive candidate peptide drugs for a novel strategy for preventing and treating AD.

[3] = Degradation of ANA-TA9 in the rat nasal cavity (nasal perfusion); format: in vivo; details: 15 mL PBS at 10 μg/mL, 120 min, LC/MS, mean of three experiments
Method: Polyethylene tubing was inserted into the rat esophagus and trachea according to the method of Hirai et al.. Briefly, under anesthesia with the anesthetic mixture described in Section 2.3.2, the trachea was cannulated with polyethylene tubing, and another tube was inserted from the esophagus to the posterior part of the nasal cavity. The nasopalatine was closed with surgical adhesive. A solution of ANA-TA9 (15 mL PBS at 10 μg/mL) was perfused from the esophagus through the nasal cavity using a peristaltic pump (SJ-1211-H; ATTO, Tokyo, Japan). The perfusing solution of ANA-TA9 was sampled at predetermined times. The ANA-TA9 concentration in the perfusate was measured by liquid chromatography-mass spectrometry (LC/MS) after the same pretreatment as that of the plasma described in Section 2.4.2.

SKGQAYRMI [ANA-TA9]
tissue level at time at 5 min ([1]; male, ddY, in vivo, inhaled or intranasal, 1 mg): 712 ± 54 ng/g
Tmax ([1]; male, ddY, inhaled or intranasal, 1 mg, i.n., read-out: time of peak plasma concentration, i.n. (converted)): 5 min
Tmax ([1]; male, ddY, ip, 1 mg, i.p., read-out: time of peak plasma concentration, i.p. (converted)): 5 min
time of peak concentration in the frontal brain, i.n. ([1]; i.n.): 30 min
time of peak concentration in the occipital brain, i.n. ([1]; i.n.): 30 min
time of peak concentration in the olfactory bulb, i.n. ([1]; i.n.): 5 min
DTP (direct transport percentage), olfactory bulb ([1]; i.n. vs i.p., from the AUC up to 90 min after administration, mean ± SE of four or five animals): 96.3 ± 0.9%
time of peak concentration in the olfactory bulb, i.p. ([1]; i.p.): 15 min
apparent half-life in the olfactory bulb after i.n. administration ([1]; in vivo): 15 min
time after i.n. administration at which ANA-TA9 could be detected in the olfactory bulb ([1]; in vivo): 60 min
concentration in the olfactory bulb more than 45 min after i.p. application ([1]; in vivo, ip): below the limit of detection
peak plasma concentration, i.p. relative to i.n. (times higher) ([1]; in vivo, ip): approximately 11 times
cleavage of Aβ42 (proteolytic activity) [2]: cleave Aβ42
concentration in the nasal perfusate, % of the initial concentration [3]: 54%
